Earlier results on one sequence are cited in paper PMC4331071 (Clinical cancer research : an official journal of the …, 2013).

The data set has as its system GRP78.

Regarding WIFPWIQL, the “efficacy among GRP78 binding peptides” value is listed as “highest efficacy”.
